Series [1] concerns the target mGlu1 (Homo sapiens, UniProt Q13255). The series can be described thus: Selectivity for mGluR2 versus mGluR1. Format: biochemical.
In series [2] the target is mGlu4 (Homo sapiens, UniProt Q14833). Kind of series: Selectivity for mGluR2 versus mGluR4. In kind it is biochemical.
In series [3] the target is mGlu8 (Homo sapiens, UniProt O00222). Kind of series: Selectivity for mGluR2 versus mGluR8. In kind it is biochemical.
Series [4] addresses mGlu7 (Homo sapiens, UniProt Q14831). The series can be described thus: Selectivity for mGluR2 versus mGluR7. In kind it is biochemical.
The target of series [5] is mGlu3 (Homo sapiens, UniProt Q14832). The series can be described thus: Selectivity for mGluR2 versus mGluR3. Format: biochemical.
Series [6] deals with mGlu5 (Homo sapiens, UniProt P41594). Kind of series: Selectivity for mGluR2 versus mGluR5. Format: biochemical.
In series [7] the target is T1, human mGlu2 receptor (Homo sapiens, UniProt Q14416).
T1 construct: expressed in transfected cells; host or cells: CHO cells
The series can be described thus: [35S]GTPγS binding assay, membranes from CHO cells transfected with the human mGlu2 receptor (NAM activity). In kind it is biochemical. The protocol: The [^35S]GTPγS binding assay is a functional membrane-based assay used to study G-protein coupled receptor (GPCR) function whereby incorporation of a non-hydrolysable form of GTP, [^35S]GTPγS (guanosine 5′-triphosphate, labelled with […] ^35S), is measured. The G-protein a subunit catalyzes the exchange of guanosine 5′-diphosphate (GDP) by guanosine triphosphate (GTP) and on activation of the GPCR by an agonist, [^35S]GTPγS, becomes incorporated and cannot be cleaved to continue the exchange cycle (Harper (1998) Current Protocols in Pharmacology 2.6.1-10, John Wiley & Sons, Inc.). […]
CHO-cells were cultured to pre-confluence and stimulated with 5 mM butyrate for 24 h. […] Protein concentration was determined by the Bradford method (Bio-Rad, USA) with bovine serum albumin as standard.
Measurement of mGluR2 negative allosteric modulatory activity of test compounds was performed as follows. […] Membrane-bound radioactivity was counted in a Topcount.
The concentration-response curves of representative compounds of the present invention were generated using the Lexis software interface (developed at J&J). Data were calculated as % of the control glutamate response, defined as the response that is generated upon addition of an EC80-equivalent concentration of glutamate. […] The concentration producing half-maximal inhibition was calculated as the IC50. […]
A general note: GTPγS is a poorly hydrolysed GTP analogue; its binding reports G protein activation.

mGlu3, sequence (Q14832 23-879): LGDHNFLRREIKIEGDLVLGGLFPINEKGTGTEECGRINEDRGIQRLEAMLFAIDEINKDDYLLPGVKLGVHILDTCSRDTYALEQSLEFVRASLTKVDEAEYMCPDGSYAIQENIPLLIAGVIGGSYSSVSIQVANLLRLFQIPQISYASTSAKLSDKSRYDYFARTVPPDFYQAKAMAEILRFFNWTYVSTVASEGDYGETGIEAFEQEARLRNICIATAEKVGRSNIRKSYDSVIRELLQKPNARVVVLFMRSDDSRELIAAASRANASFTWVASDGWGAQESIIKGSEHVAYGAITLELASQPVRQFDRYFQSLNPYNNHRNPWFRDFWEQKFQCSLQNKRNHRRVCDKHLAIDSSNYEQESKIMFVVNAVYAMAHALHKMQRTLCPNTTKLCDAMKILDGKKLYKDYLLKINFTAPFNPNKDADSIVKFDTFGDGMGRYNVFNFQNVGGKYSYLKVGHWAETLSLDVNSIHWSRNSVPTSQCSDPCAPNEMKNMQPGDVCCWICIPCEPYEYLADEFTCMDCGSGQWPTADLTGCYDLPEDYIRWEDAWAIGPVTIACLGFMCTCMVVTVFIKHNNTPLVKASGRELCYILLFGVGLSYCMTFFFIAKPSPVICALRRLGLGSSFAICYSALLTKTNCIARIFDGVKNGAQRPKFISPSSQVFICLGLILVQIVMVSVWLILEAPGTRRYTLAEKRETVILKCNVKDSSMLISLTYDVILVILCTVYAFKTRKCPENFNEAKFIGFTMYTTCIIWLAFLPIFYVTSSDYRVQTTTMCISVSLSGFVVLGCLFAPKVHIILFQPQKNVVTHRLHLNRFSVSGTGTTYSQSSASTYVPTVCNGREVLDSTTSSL
mGlu1, sequence (Q13255 19-1194): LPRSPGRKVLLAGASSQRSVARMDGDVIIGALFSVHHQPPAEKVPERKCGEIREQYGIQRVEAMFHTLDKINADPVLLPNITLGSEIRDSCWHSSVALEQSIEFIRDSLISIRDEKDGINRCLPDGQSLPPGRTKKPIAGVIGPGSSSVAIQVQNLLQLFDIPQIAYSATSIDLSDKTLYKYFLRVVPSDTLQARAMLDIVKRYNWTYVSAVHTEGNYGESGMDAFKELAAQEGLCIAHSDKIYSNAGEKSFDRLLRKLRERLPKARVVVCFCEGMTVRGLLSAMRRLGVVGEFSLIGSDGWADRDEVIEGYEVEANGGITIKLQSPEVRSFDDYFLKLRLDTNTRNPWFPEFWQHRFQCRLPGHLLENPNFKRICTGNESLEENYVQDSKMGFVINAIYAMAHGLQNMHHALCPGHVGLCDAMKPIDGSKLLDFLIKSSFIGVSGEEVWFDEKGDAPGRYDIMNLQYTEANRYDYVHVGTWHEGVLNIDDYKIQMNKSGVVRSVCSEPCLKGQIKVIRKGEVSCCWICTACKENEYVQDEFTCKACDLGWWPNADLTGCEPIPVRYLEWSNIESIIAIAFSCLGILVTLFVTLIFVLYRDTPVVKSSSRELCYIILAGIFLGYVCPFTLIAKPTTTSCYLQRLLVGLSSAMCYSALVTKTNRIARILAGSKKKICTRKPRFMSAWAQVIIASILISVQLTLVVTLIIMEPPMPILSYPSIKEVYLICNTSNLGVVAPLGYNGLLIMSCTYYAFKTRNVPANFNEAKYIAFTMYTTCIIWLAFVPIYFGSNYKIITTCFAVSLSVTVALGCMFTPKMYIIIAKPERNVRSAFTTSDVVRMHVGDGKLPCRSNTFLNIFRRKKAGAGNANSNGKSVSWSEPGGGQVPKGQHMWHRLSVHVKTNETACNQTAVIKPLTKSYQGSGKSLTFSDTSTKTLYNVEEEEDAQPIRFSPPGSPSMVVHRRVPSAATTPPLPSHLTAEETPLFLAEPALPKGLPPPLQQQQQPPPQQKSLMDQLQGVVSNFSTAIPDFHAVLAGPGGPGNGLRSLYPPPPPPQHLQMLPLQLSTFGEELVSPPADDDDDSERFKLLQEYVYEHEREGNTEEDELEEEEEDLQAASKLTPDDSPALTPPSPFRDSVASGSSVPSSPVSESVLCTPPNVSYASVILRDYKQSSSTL
mGlu8, sequence (O00222 34-908): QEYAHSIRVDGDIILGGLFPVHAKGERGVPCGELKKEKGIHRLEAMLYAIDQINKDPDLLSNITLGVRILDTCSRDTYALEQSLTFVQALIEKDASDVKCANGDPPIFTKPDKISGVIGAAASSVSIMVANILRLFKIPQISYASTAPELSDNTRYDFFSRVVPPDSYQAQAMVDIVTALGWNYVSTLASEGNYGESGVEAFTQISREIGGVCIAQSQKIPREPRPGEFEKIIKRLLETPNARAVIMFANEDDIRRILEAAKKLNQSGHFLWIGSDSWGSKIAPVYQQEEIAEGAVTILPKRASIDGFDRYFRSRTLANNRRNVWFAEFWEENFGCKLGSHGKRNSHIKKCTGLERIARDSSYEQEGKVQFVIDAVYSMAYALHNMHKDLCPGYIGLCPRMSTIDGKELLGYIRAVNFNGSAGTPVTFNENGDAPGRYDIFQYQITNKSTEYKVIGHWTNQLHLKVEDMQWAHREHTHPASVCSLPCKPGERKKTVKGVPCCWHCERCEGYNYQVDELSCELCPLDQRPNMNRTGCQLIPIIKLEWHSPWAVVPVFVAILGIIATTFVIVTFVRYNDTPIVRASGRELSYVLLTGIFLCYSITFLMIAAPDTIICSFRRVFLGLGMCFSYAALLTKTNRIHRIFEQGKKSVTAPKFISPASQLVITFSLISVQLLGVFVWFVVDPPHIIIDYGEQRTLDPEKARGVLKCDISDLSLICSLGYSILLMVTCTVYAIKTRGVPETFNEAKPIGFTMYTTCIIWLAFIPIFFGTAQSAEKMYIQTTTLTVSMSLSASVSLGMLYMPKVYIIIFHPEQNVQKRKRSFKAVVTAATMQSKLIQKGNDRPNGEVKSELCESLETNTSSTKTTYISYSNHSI
T1 sequence (Q14416 19-872): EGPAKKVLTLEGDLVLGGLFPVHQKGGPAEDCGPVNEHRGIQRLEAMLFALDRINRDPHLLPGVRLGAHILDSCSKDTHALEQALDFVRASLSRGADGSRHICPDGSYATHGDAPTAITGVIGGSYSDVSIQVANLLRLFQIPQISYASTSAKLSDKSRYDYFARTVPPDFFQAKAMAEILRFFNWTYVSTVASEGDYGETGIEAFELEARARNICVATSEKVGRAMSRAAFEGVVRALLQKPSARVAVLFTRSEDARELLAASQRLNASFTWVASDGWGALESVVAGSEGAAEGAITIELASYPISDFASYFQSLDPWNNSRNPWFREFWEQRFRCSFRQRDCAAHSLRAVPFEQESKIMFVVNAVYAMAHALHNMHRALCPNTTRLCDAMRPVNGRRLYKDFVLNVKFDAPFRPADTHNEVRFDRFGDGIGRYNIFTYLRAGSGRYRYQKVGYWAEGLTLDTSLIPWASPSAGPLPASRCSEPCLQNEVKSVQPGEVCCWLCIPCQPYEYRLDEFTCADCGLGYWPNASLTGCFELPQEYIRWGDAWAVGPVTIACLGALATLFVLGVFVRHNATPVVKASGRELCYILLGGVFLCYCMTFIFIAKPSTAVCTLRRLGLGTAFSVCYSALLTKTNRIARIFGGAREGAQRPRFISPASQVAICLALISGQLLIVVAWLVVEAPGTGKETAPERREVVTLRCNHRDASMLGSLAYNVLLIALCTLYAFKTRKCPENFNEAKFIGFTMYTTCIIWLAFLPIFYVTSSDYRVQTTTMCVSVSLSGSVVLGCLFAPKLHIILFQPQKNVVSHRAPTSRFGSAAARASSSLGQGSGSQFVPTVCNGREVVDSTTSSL
mGlu7, sequence (Q14831 35-915): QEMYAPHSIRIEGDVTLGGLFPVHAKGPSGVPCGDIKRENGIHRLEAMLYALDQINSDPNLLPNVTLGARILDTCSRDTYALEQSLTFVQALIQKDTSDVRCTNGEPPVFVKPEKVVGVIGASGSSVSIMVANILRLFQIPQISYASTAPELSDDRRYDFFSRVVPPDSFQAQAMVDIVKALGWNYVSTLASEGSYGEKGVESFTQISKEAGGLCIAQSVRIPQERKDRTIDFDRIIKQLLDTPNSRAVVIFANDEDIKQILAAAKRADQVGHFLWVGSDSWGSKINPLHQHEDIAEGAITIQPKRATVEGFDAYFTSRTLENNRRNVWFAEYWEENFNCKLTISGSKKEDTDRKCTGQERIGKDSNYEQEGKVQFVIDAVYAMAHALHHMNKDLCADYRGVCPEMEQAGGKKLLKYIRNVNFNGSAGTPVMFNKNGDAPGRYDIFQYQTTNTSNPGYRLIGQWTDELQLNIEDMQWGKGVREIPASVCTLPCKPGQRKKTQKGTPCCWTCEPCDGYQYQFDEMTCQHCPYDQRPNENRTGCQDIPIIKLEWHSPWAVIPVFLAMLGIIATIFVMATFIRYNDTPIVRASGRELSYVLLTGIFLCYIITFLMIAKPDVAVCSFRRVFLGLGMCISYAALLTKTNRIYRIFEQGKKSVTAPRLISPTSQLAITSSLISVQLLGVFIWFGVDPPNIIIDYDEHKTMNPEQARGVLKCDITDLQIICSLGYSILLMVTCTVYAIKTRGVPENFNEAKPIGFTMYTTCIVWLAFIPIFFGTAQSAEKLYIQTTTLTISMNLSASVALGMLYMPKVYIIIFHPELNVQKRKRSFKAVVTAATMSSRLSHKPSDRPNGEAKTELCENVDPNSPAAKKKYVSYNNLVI

As for `Cc1cc(-c2cnn3c2C(=O)N(c2ccc(C(F)(F)F)cc2)C[C@@H]3C)ccn1` [Co. No. 1, (7S)-7-Methyl-3-(2-methylpyridin-4-yl)-5-[4-(trifluoromethyl)phenyl]-6,7-dihydropyrazolo[1,5-a]pyrazin-4(5H)-one], in series [1], the “Selectivity over mGlu1” value was 1122.0. Further, in series [2], the “Selectivity over mGlu4” value is listed as 5623.4. Besides, in series [3], the “Selectivity over mGlu8” value stood at 1122.0. In series [4], the “Selectivity over mGlu7” value was determined as 1122.0. In series [5], the “Selectivity over mGlu3” value is on record as 25.7. For the same compound, the “Selectivity over mGlu5” value in series [6] was determined as 1122.0.
For the compound `C[C@H]1CN(c2ccc(Cl)c(Cl)c2)C(=O)c2c(-c3ccnc(F)c3)cnn21` [Co. No. 3, (7S)-5-(3,4-Dichlorophenyl)-3-(2-fluoro-4-pyridyl)-7-methyl-6,7-dihydropyrazolo[1,5-a]pyrazin-4-one], the melting point (as a rule, the temperature of the solid-liquid transition) is 170.3 °C. Moreover, the “Selectivity over mGlu1” value in series [1] worked out at 1819.7. The “Selectivity over mGlu4” value in series [2] is recorded as 9120.1. Further, the “Selectivity over mGlu8” value in series [3] is 1819.7. Further, the “Selectivity over mGlu7” value in series [4] was 1819.7. In addition, the “Selectivity over mGlu3” value in series [5] came to 16.2. Besides, the “Selectivity over mGlu5” value in series [6] is reported as 1819.7.
Consider `CNc1cc(-c2cnn3c2C(=O)N(c2ccc(S(F)(F)(F)(F)F)cc2)C[C@@H]3C)ccn1` [Co. No. 4, (7S)-7-Methyl-3-[2-(methylamino)-4-pyridyl]-5-[4-(pentafluoro-λ^6-sulfanyl)phenyl]-6,7-dihydropyrazolo[1,5-a]pyrazin-4-one], for which, in series [7] (glutamate 60 μM (~EC80), read-out: GTPγS - hmGluR2 anGT pIC50 (converted)), the IC50 is 3.02 nM. For the same compound, the Emax (as a rule, the greatest response seen or fitted, relative to the assay's reference) in series [7] (maximal % inhibition relative to the control glutamate response, read-out: GTPγS - hmGluR2 anGT Emax) was found to be 106%. For the same compound, the “Selectivity over mGlu3” value in series [5] worked out at 77.6.
With `CNc1cc(-c2cnn3c2C(=O)N(c2ccc(C(F)(F)F)c(OC)n2)C[C@@H]3C)ccn1` [Co. No. 5, (7S)-5-[6-Methoxy-5-(trifluoromethyl)-2-pyridyl]-7-methyl-3-[2-(methylamino)-4-pyridyl]-6,7-dihydropyrazolo[1,5-a]pyrazin-4-one], the melting point came out at 125.82 °C. Further, in series [5], the “Selectivity over mGlu3” value was found to be 234.4.
